# Laboratory results published in US5290817A, “Substituted 1-benzylindanes and their use as inhibitors of phospholipase A2” (The Du Pont Merck Pharmaceutical Co., priority 1992, dated 1994).
# Assays:
# [1] = test system: porcine pancreatic phospolipase A2; details: Ripka et al., Journal of Cellular Biochemistry, 40, 279-286 (1989); cited from earlier work
# [2] = biological target: PLA2 from Crotalus adamanteus (Crotalus adamanteus, UniProt P00623); assay: biochemical; design: species or system Crotalus adamanteus (snake venom)
# [3] = Carrageenan Paw Edema Assay; assay type: in vivo, rat (male Sprague-Dawley); details: 50 mg/kg, intraperitoneal, paw volume at three hours; n = 3
# Protocol: The test procedure is as follows: male Caesarian-derived Sprague-Dawley rates from Charles River Laboratories are maintained on rat chow and water ad libidum and on a 12 hour light/12 hour dark cycle until they weight 160-210 grams.
# One drop of Tween 80 per 10 ml of methylcellulose and 4 mm glass beads are added to each suspension. Each compound is bead-milled for one hour prior to use.
# Dosing is intraperitioneal.
# After dosing, all animals are given tap water so that the total volumes of fluid administered to each rat orally is 5.0 ml. This achieves uniform hydration of the rats and thus minimizes variability of the edematous response in the paw.
# Sigma Type IV lambda carrageenan (Sigma Chemical Company, St. Louis, Mo., #C3889) is suspended in 0.9% sterile saline usually as a 1% solution (100 mg/10 ml). This preparation is bead-milled one hour prior to use. […]
# Immediately following injection initial paw volume readings are taken, and then again three hours later using a Ugo Basile volume plethysmometer. The differences between the initial reading and the three hour reading is then calculated. Means; S.E.M. of these difference are determined for each group. The percent decrease from the control volumes are calculated using the following formula: [formula] Data are evaluated using the Student's t-test and p 0.05 is considered significant.
# PLA2 from Crotalus adamanteus, sequence (P00623 17-138 limits assumed): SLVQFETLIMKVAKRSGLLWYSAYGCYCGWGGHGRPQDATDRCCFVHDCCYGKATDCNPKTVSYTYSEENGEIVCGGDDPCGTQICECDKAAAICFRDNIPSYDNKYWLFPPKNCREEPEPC
Compound,inhibitory activity against porcine pancreatic phospolipase A2 [1],IC50 [2] [nM],Carr. Paw Edemia Inhib. % [3] [%]
Oc1cccc(CC2CCc3ccccc32)c1 (stereo not drawn),claimed to possess inhibitory activity,–,–
"O=CCc1cccc(CC2CCc3ccccc32)c1 (stereo not drawn) [Ex. 12, 3-(2',3'-Dihydroinden-1'-ylmethyl)-phenylacetaldehyde]",–,2400,51
